In data set [1] the target is Prostaglandin G/H synthase 1 (Homo sapiens, UniProt P23219). Nature of the data set: In vitro inhibitory activity against sensitive U-937 microsomal prostaglandin G/H synthase 1.
Data set [2] deals with T1, Prostaglandin G/H synthase 2 (Homo sapiens, UniProt P35354).
T1 sequence (P35354 whole entry): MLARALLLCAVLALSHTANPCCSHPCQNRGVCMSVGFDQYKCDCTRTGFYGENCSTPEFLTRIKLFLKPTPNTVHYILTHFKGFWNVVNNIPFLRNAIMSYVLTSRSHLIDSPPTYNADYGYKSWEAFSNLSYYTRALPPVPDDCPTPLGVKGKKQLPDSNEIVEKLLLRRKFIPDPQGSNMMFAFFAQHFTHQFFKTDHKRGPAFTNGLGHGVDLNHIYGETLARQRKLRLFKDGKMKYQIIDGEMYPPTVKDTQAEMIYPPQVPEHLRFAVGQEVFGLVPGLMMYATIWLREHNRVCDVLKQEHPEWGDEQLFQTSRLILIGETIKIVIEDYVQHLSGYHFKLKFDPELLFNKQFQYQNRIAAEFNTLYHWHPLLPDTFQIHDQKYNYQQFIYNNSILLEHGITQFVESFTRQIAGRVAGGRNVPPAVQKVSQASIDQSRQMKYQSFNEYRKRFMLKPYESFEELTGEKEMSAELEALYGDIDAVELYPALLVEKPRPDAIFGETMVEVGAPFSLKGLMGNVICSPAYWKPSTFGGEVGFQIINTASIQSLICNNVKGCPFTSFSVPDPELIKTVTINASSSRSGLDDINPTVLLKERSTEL
Nature of the data set: In vitro inhibitory activity against prostaglandin G/H synthase 2 stably transfected in Chinese hamster ovary (CHO) cells. Type of data set: cell-based.

The target in data set [3] is T1, Prostaglandin G/H synthase 2. Nature of the data set: In vitro inhibitory activity against prostaglandin G/H synthase 2 stably transfected in Human whole blood (HWB) cell. Type of data set: tissue-based.
The nature of data set [4]: Cmax value was determined after peroral administration of 20 mg/kg in rat. Format: ADME, organism-based. Also noted: dose 20 mg/kg, route oral. Particulars: in vivo, po.
Data set [5] relates to Rattus norvegicus. Nature of the data set: Percent inhibition was determined in vivo by using rat paw edema assay at 10 mg/kg. Format: functional.
Data set [6] has as its system Rattus norvegicus. Nature of the data set: Effective dose of the Compound was determined in vivo by using rat paw edema assay. Format: functional.
The subject of data set [7] is Rattus norvegicus. The data set can be described thus: Effective dose of the Compound was determined in vivo by using rat pyresis assay. Format: functional.

Structures are written as SMILES.

Sequence of Prostaglandin G/H synthase 1 (P23219 whole entry): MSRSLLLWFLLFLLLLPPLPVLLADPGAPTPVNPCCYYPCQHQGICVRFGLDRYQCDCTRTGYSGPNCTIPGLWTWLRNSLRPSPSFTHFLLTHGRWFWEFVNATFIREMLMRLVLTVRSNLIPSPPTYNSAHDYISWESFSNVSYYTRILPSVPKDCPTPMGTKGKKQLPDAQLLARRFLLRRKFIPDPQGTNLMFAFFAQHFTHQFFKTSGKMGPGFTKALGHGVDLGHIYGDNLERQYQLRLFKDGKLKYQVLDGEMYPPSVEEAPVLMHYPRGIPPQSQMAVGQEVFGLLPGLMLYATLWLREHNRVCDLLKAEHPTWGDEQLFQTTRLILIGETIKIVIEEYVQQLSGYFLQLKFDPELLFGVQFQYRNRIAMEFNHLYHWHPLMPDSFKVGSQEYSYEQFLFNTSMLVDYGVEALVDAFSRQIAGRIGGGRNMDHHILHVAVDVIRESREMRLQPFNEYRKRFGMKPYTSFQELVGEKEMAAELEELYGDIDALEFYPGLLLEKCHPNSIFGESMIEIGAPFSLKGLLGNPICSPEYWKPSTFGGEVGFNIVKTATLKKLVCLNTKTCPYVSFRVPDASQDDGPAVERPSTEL

On to `CC1(Cn2ncc(-c3ccc(S(C)(=O)=O)cc3)c(-c3ccc(F)cc3)c2=O)CC1`, for which the results for the IC50 in data set [1], in data set [2] and in data set [3] were 3 µM, 0.2 µM and 0.7 µM, respectively.
In data set [1], `CS(=O)(=O)c1ccc(-c2cnn(Cc3ccccc3)c(=O)c2Oc2ccc(Cl)cn2)cc1` displayed an IC50 of 10 µM.
As to `C[C@@H]1C[C@H]1Cn1ncc(-c2ccc(S(C)(=O)=O)cc2)c(-c2ccc(F)cc2)c1=O`, the IC50 is 10 µM in data set [1], 0.06 µM in data set [2] and 1.7 µM in data set [3]. Also, the peak level in data set [4] (Cmax) was 4.8 µM. In the data set with Rattus norvegicus [5], this molecule registered an inhibition in vivo at 10 mg/kg of 40%.
In data set [1], `CS(=O)(=O)c1ccc(-c2cnn(Cc3ccccc3)c(=O)c2Oc2ccc(F)cc2)cc1` displayed a concentration for half-maximal inhibition (IC50) of 1 µM. Moreover, the ED50 in the data set with Rattus norvegicus [6] was above 10 mg/kg.
Take `Cc1ccc(-c2c(-c3ccc(S(C)(=O)=O)cc3)cnn(Cc3ccccc3)c2=O)cn1`: the half-inhibitory concentration (IC50) in data set [1] is above 10 µM. The median effective dose (ED50) in the data set with Rattus norvegicus [6] was above 10 mg/kg. The same molecule displayed a Cmax in data set [4] of 4.2 µM.
For the molecule `C[C@H]1C[C@H]1Cn1ncc(-c2ccc(S(C)(=O)=O)cc2)c(-c2ccc(F)cc2)c1=O` (racemic), the 50% inhibitory concentration (IC50) in data set [1] is 10 µM; in data set [2], 0.05 µM; in data set [3], 2.4 µM.
In data set [1], `CS(=O)(=O)c1ccc(-c2cnn(Cc3cccs3)c(=O)c2-c2ccc(F)cc2)cc1` returned a half-maximal inhibitory concentration (IC50) of 1 µM.
Regarding `CS(=O)(=O)c1ccc(-c2cnnc(O)c2-c2ccccc2)cc1`, the IC50 is above 10 µM in data set [1], above 5 µM in data set [2] and above 33 µM in data set [3].
The like results for `CC(C)(C)n1ncc(-c2ccc(S(C)(=O)=O)cc2)c(-c2ccccc2)c1=O` were, in that order, above 10 µM, above 5 µM and above 33 µM.
The like results for `CC1(C)CC1Cn1ncc(-c2ccc(S(C)(=O)=O)cc2)c(-c2ccc(F)cc2)c1=O` (racemic) were, in that order, 3 µM, 0.03 µM and 0.7 µM.
For `CS(=O)(=O)c1ccc(-c2cnn(Cc3ccccc3)c(=O)c2-c2ccccc2)cc1`, the 50% inhibitory concentration (IC50) in data set [1] was found to be 10 µM. Further, in data set [4], the peak concentration (Cmax) came out at 1 µM.
For `CC(C1CC1)n1ncc(-c2ccc(S(C)(=O)=O)cc2)c(-c2ccc(F)cc2)c1=O` (racemic), the values for the 50% effective dose (ED50) in the data set on Rattus norvegicus [7] and with Rattus norvegicus [6] were above 10 mg/kg and 1.8 mg/kg, respectively. The concentration for half-maximal inhibition (IC50) in data set [1] was 10 µM; in data set [2], 0.2 µM; in data set [3] it was 0.7 µM. This molecule also came in with a Cmax in data set [4] of 13 µM.
For `CC(C)=CCn1ncc(-c2ccc(S(C)(=O)=O)cc2)c(-c2ccc(F)cc2)c1=O`, the IC50 in data set [1] came out at 3 µM.
For the molecule `CS(=O)(=O)c1ccc(-c2cnn(CCC3CC3)c(=O)c2-c2ccc(F)cc2)cc1`, the half-inhibitory concentration (IC50) in data set [1] was above 10 µM; in data set [2], 0.2 µM; in data set [3] it was 2.9 µM.
On to `CS(=O)(=O)c1ccc(-c2cnn(C3CC3)c(=O)c2-c2ccc(F)cc2)cc1`, for which the midpoint of inhibition in data set [1], the IC50, lay at 10 µM.
`C[C@H]1C(Cn2ncc(-c3ccc(S(C)(=O)=O)cc3)c(-c3ccc(F)cc3)c2=O)[C@@H]1C` (mixture of isomers): the IC50 worked out at 3 µM in data set [1], 0.05 µM in data set [2] and 0.7 µM in data set [3].
The matching figures for `CS(=O)(=O)c1ccc(-c2cnn(Cc3ccccc3)c(=O)c2Sc2ccccc2)cc1`: 10 µM, 0.37 µM and 5.9 µM.
`Cc1ccc(-c2c(-c3ccc(S(C)(=O)=O)cc3)cnn(Cc3ccccc3)c2=O)cc1`: the ED50 in the data set on Rattus norvegicus [7] was above 10 mg/kg; with Rattus norvegicus [6], 2.2 mg/kg. Moreover, the IC50 in data set [1] was above 10 µM; in data set [2] it was 0.02 µM. This molecule came in with a maximum concentration (Cmax) in data set [4] of 2.7 µM.
Consider `CS(=O)(=O)c1ccc(-c2cnn(CC3CCCCC3)c(=O)c2-c2ccc(F)cc2)cc1`, for which the half-maximal inhibitory concentration (IC50) in data set [1] stood at 1 µM.
`CS(=O)(=O)c1ccc(-c2cnn(Cc3cccnc3)c(=O)c2-c2ccccc2)cc1`: the IC50 in data set [1] was 10 µM; in data set [2] it was 1.3 µM; in data set [3], 7.1 µM.
For the molecule `CS(=O)(=O)c1ccc(-c2cnn(Cc3ccccc3)c(=O)c2OCC2CC2)cc1`, the IC50 came to 10 µM in data set [1], 0.003 µM in data set [2] and 0.36 µM in data set [3]. Moreover, the ED50 in the data set with Rattus norvegicus [6] was above 10 mg/kg. In data set [4], this molecule returned a Cmax of 0.8 µM.
For the molecule `C[C@H]1C[C@@H]1Cn1ncc(-c2ccc(S(C)(=O)=O)cc2)c(-c2ccc(F)cc2)c1=O`, the values for the ED50 with Rattus norvegicus [7] and with Rattus norvegicus [6] were 1.1 mg/kg and 0.7 mg/kg, respectively. Besides, the IC50 in data set [1] amounted to 3 µM; in data set [2], 0.06 µM; in data set [3] it was 0.3 µM. Further, in data set [4], the peak level (Cmax) was 16 µM.
Molecule `Cn1ncc(-c2ccc(S(C)(=O)=O)cc2)c(-c2ccccc2)c1=O` yielded an IC50 in data set [2] of 0.3 µM.
Consider `CC(C)Oc1c(-c2ccc(S(C)(=O)=O)cc2)cnn(Cc2ccccc2)c1=O`, for which the 50% effective dose (ED50) with Rattus norvegicus [7] and in the data set on Rattus norvegicus [6] was below 0.3 mg/kg in each case. This molecule displayed an IC50 in data set [1] above 10 µM. Besides, in data set [4], the Cmax is 2.8 µM.
For `CS(=O)(=O)c1ccc(-c2cnn(Cc3nccs3)c(=O)c2-c2ccc(F)cc2)cc1`, the half-inhibitory concentration (IC50) in data set [1] was determined as 10 µM; in data set [2], 0.6 µM; in data set [3] it was 5.9 µM.
Consider `CS(=O)(=O)c1ccc(-c2cnn(-c3ccccc3)c(=O)c2-c2ccccc2)cc1`, for which the half-inhibitory concentration (IC50) in data set [1] is above 10 µM.
`CS(=O)(=O)c1ccc(-c2cnn(CC3CC3)c(=O)c2-c2ccc(F)cc2)cc1`: the IC50 in data set [1] was above 10 µM. In the data set with Rattus norvegicus [6], it took a dose of 10 mg/kg to reach the 50% effect level (ED50). The molecule further displayed a peak concentration (Cmax) in data set [4] of 8.5 µM.

By IC50 is commonly meant the midpoint of a concentration-inhibition curve. High values mean a need for much substance, low ones inhibition by little substance. The term Cmax denotes the highest concentration seen after dosing. A word on the inhibition in vivo: it is the drop in the measured response relative to a control, in per cent. By ED50 is commonly meant the midpoint of the dose-response relation. Low readings indicate greater potency, high ones weaker potency.

(Values after ChEMBL document CHEMBL1136575, “Pyridazinones as selective cyclooxygenase-2 inhibitors” (Bioorg Med Chem Lett, 2003).)
